Paper PMC12152945, “Computational Design of Lysine Targeting Covalent Binders Using Rosetta” (Journal of Chemical Information and Modeling, 2025)

Columns and labels:
[1] = molecular target: T1, MKK7 (Homo sapiens, UniProt O14733); experiment: radiometric […] kinase assay ([…]PanQinase); type: biochemical; settings: 3 μM ATP, 75.6 nM MKK7, JNK1 K55R K56R substrate; 3 mM MgCl2, 3 mM MnCl2, pH 7.5, 30 °C; 30 min preincubation; reversible covalent (imine, Lys221)
T1 construct: gene MAP2K7; GST or His-tagged kinase from Reaction Biology (33PanQinase assay)
T1 sequence (O14733 2-419): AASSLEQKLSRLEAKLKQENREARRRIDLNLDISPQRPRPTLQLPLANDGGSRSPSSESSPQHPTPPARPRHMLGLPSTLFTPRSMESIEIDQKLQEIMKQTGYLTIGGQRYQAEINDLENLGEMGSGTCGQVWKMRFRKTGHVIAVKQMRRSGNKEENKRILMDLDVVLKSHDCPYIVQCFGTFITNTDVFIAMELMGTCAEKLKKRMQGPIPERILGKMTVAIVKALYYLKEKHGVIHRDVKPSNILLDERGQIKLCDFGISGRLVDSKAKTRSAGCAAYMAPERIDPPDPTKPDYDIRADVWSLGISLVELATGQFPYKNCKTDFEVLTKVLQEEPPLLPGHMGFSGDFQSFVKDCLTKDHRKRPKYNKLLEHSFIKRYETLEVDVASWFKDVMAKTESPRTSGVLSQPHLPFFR

[2] = molecular target: T2, MKK7 kinase domain (Homo sapiens, UniProt O14733); experiment: intact protein LC/MS; type: binding; settings: covalent, reversible imine trapped with 5 mM NaBH4; 2 μM protein, HEPES pH 7.5, overnight 4 °C
T2 construct: gene MAP2K7; His-tagged kinase domain for intact-protein LC/MS
T2 sequence (O14733 117-419 limits assumed): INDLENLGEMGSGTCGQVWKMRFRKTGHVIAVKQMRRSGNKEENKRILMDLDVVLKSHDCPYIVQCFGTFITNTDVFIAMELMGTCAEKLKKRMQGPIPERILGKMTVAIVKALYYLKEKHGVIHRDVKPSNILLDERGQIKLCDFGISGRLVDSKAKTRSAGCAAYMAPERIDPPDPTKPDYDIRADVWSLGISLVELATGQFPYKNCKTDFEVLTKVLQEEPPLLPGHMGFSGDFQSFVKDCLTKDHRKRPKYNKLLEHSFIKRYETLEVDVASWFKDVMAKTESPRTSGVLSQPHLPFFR

O=Cc1ccc(-c2n[nH]c3ccccc23)cc1O [compound 1]
IC50 [1]: 0.738 µM
intact protein LC/MS [2]: Significant labeling was detected only after the reduction of the complex
